{"source": "patent US5541174A", "about": "“Analgesic method” (priority 1995, dated 1996)", "key": {"[1]": {"test_system": "acetic acid induced writhing in mice", "assay": "Acetic acid-induced writhing test", "type": "in vivo, ICR male mice", "protocol": "1. Acetic acid-induced writhing test as described in Koster et al., \"Acetic Acid for Analgesic Screening\", Fed. Proc. 18, 412 (1959), incorporated by reference herein; and\nGroups of 10 ICR male mice (Taisho Pharmaceutical Co. Research Center) were used to study each dose of every compound. Ligands or complexes were administered orally or subcutaneously in 0.1 ml of vehicle per 10 g of body weight 30 minutes before the intrapertioneal injection of 0.1 ml of 0.7% acetic acid solution per 10 g of body weight. Number of writhes were counted for each mouse during a period of 10 to 20 min after acetic acid injection. Inhibitory percent was calculated by comparison with the number of writhes in the non-treated control, vehicle-treated, and acetic acid-injected group. The ED50 value and 95% confidence limits were calculated from the inhibitory percent by the method of Litchfield and Wilcoxon."}, "[2]": {"test_system": "adjuvant-induced arthritic pain in rats", "assay": "Adjuvant-induced arthritic pain", "type": "in vivo, male Sprague-Dawley rats", "description": "2. Adjuvant-induced arthritic pain as described in:\nS. KUZNA, et al., Measurement of Arthritic Pain and Effects of Analgesics in the Adjuvant-Treated Rat, Chem. Pharm. Bull. 23, 1184-1191 (1975);\nC. A. WINTER, et al., Analgesic Activity of Diflunisal in Rats with Hyperalygesia Induced by Freud's Adjuvant, J. Pharmacol. Exp. Ther. 211, 678-685 (1979; and\nM. E. ROSENTHALE, et al., Adjuvant Arthritis:Immuno-Pathological and Hyperalgesic Features, Fed. Proced. 41, 2577-2582 (1982),\nincorporated by reference herein.\nGroups of 5-6 male Sprague-Dawley rats (Taisho Pharmaceutical Co. Research Center) weighing 140 to 160 g at the time of Mycobacterium butyricum (adjuvant, Difco Laboratories, Detroit, Mich.) injection were used to study each compound. Rats were injected intradermally at the base of the tail with 0.1 ml of a parafin oil suspension of 0.5 mg of heat-killed mycobacterium. Fifteen to 19 days later, drugs were administered orally or subcutaneously in 0.5 ml of vehicle per 100 g of body weight to rats showing the nociceptive reaction, vocalization following a gentle flexion of the tarsal-tibial joint of the inflamed hind-paw. Vocalization responses were measured every hour for 5 hours. […] The ED50 value and 95% confidence limits were calculated from the positive rate for non-treated controls, vehicle-treated adjuvant arthritic rats, by the method of Litchfield and Wilcoxin.\nAll drugs were suspended with 5% gum arabic in saline solution or wetted with enough propylene glycol to give a final concentration of 4% propylene glycol and the wetted solid suspended in 1.4% polyvinyl alcohol in saline."}, "[3]": {"settings": "oral, 5% gum arabic, 0.33 mmol/kg"}, "[4]": {"settings": "oral, 5% gum arabic, 0.18 mmol/kg"}, "[5]": {"settings": "oral, 5% gum arabic, 0.71 mmol/kg"}}, "data": [{"compound": "O=C(O)c1ccccc1O", "note": "[Salicylic acid, reference compound]", "values": [{"measurement": "ED50", "setting": "[1]; oral, 5% gum arabic in saline", "result": 2.13, "unit": "mmol/kg"}, {"measurement": "% Inhibition", "setting": "[1]; oral, 5% gum arabic, 0.91 mmol/kg", "result": 29, "unit": "%"}, {"measurement": "% Inhibition", "setting": "[1]; oral, 5% gum arabic, 1.81 mmol/kg", "result": 33, "unit": "%"}, {"measurement": "% Inhibition", "setting": "[1]; oral, 5% gum arabic, 3.62 mmol/kg", "result": 73, "unit": "%"}, {"measurement": "ED50", "setting": "[1]; oral, PG-PVA in saline", "result": "> 2.17", "unit": "mmol/kg"}, {"measurement": "% Inhibition", "setting": "[1]; oral, PG-PVA, 2.17 mmol/kg", "result": 38, "unit": "%"}, {"measurement": "ED50", "setting": "[1]; s.c., PG-PVA in saline", "result": 1.02, "unit": "mmol/kg"}, {"measurement": "% Inhibition", "setting": "[1]; s.c., PG-PVA, 0.54 mmol/kg", "result": 25, "unit": "%"}, {"measurement": "% Inhibition", "setting": "[1]; s.c., PG-PVA, 1.09 mmol/kg", "result": 52, "unit": "%"}, {"measurement": "% Inhibition", "setting": "[1]; s.c., PG-PVA, 2.17 mmol/kg", "result": 80, "unit": "%"}, {"measurement": "ED50", "setting": "[2]; oral, 5% gum arabic in saline", "result": 2.33, "unit": "mmol/kg"}, {"measurement": "% Inhibition", "setting": "[2]; oral, 5% gum arabic, 1.09 mmol/kg", "result": 27, "unit": "%"}, {"measurement": "% Inhibition", "setting": "[2]; oral, 5% gum arabic, 2.17 mmol/kg", "result": 57, "unit": "%"}, {"measurement": "% Inhibition", "setting": "[2]; oral, 5% gum arabic, 4.34 mmol/kg", "result": 37, "unit": "%"}, {"measurement": "time course of analgesia", "setting": "[2]; oral, 5% gum arabic, FIG. 1, 5 hours post-treatment", "result": "began to decline in the 3 to 4 hr interval following treatment"}, {"measurement": "ED50", "setting": "[2]; oral, PG-PVA in saline", "result": 1.83, "unit": "mmol/kg"}, {"measurement": "% Inhibition", "setting": "[2]; oral, PG-PVA, 0.72 mmol/kg", "result": 33, "unit": "%"}, {"measurement": "% Inhibition", "setting": "[2]; oral, PG-PVA, 1.44 mmol/kg", "result": 43, "unit": "%"}, {"measurement": "% Inhibition", "setting": "[2]; oral, PG-PVA, 2.88 mmol/kg", "result": 60, "unit": "%"}]}, {"compound": "N[C@@H](CSSC[C@H](N)C(=O)[O-])C(=O)[O-].[Cu+2]", "note": "[Cu(II)(L-cystinate)]", "values": [{"measurement": "activity versus other copper complexes and parent ligand", "setting": "[1]; Table VI", "result": "less active than the other copper complexes"}, {"measurement": "ED50", "setting": "[1]; oral, 5% gum arabic in saline", "result": "> 0.33", "unit": "mmol/kg"}, {"measurement": "% Inhibition", "setting": "[1]; [3]", "result": 35, "unit": "%"}, {"measurement": "ED50", "setting": "[2]; oral, 5% gum arabic in saline", "result": "> 0.33", "unit": "mmol/kg"}, {"measurement": "% Inhibition", "setting": "[2]; [3]", "result": 0, "unit": "%"}]}, {"compound": "Cu(II)2 (acetate)4", "values": [{"measurement": "ED50", "setting": "[1]; s.c., PG-PVA in saline", "result": 0.32, "unit": "mmol/kg"}, {"measurement": "% Inhibition", "setting": "[1]; s.c., PG-PVA, 0.21 mmol/kg", "result": 42, "unit": "%"}, {"measurement": "% Inhibition", "setting": "[1]; s.c., PG-PVA, 0.41 mmol/kg", "result": 59, "unit": "%"}, {"measurement": "% Inhibition", "setting": "[1]; s.c., PG-PVA, 0.83 mmol/kg", "result": 61, "unit": "%"}, {"measurement": "effectiveness versus other compounds", "setting": "[1]; writhing model, Tables I and II", "result": "more effective than anthranilic acid, salicylic acid, and aspirin"}, {"measurement": "analgesic activity", "setting": "[2]; doses statistically significantly analgesic in the writhing model", "result": "devoid of analgesic activity"}, {"measurement": "ED50", "setting": "[2]; oral, PG-PVA in saline", "result": "> 0.83", "unit": "mmol/kg"}, {"measurement": "% Inhibition", "setting": "[2]; oral, PG-PVA, 0.83 mmol/kg", "result": 0, "unit": "%"}, {"measurement": "ED50", "setting": "[2]; s.c., PG-PVA in saline", "result": "> 0.83", "unit": "mmol/kg"}, {"measurement": "% Inhibition", "setting": "[2]; s.c., PG-PVA, 0.83 mmol/kg", "result": 3, "unit": "%"}]}, {"compound": "COc1ccc2c(c1)c(CC(=O)O)c(C)n2C(=O)c1ccc(Cl)cc1", "note": "[Indomethacin, reference compound]", "values": [{"measurement": "ED50", "setting": "[1]; oral, 5% gum arabic in saline", "result": 0.04, "unit": "mmol/kg"}, {"measurement": "% Inhibition", "setting": "[1]; oral, 5% gum arabic, 0.01 mmol/kg", "result": 36, "unit": "%"}, {"measurement": "% Inhibition", "setting": "[1]; oral, 5% gum arabic, 0.03 mmol/kg", "result": 42, "unit": "%"}, {"measurement": "% Inhibition", "setting": "[1]; oral, 5% gum arabic, 0.06 mmol/kg", "result": 58, "unit": "%"}, {"measurement": "ED50", "setting": "[1]; oral, PG-PVA in saline", "result": 0.01, "unit": "mmol/kg"}, {"measurement": "% Inhibition", "setting": "[1]; oral, PG-PVA, 0.007 mmol/kg", "result": 27, "unit": "%"}, {"measurement": "% Inhibition", "setting": "[1]; oral, PG-PVA, 0.014 mmol/kg", "result": 60, "unit": "%"}, {"measurement": "% Inhibition", "setting": "[1]; oral, PG-PVA, 0.028 mmol/kg", "result": 68, "unit": "%"}, {"measurement": "ED50", "setting": "[1]; s.c., PG-PVA in saline", "result": 0.02, "unit": "mmol/kg"}, {"measurement": "% Inhibition", "setting": "[1]; s.c., PG-PVA, 0.007 mmol/kg", "result": 19, "unit": "%"}, {"measurement": "% Inhibition", "setting": "[1]; s.c., PG-PVA, 0.014 mmol/kg", "result": 36, "unit": "%"}, {"measurement": "% Inhibition", "setting": "[1]; s.c., PG-PVA, 0.056 mmol/kg", "result": 60, "unit": "%"}, {"measurement": "ED50", "setting": "[2]; oral, 5% gum arabic in saline", "result": 0.003, "unit": "mmol/kg"}, {"measurement": "% Inhibition", "setting": "[2]; oral, 5% gum arabic, 0.001 mmol/kg", "result": 27, "unit": "%"}, {"measurement": "% Inhibition", "setting": "[2]; oral, 5% gum arabic, 0.003 mmol/kg", "result": 43, "unit": "%"}, {"measurement": "% Inhibition", "setting": "[2]; oral, 5% gum arabic, 0.006 mmol/kg", "result": 77, "unit": "%"}, {"measurement": "ED50", "setting": "[2]; oral, PG-PVA in saline", "result": 0.02, "unit": "mmol/kg"}, {"measurement": "% Inhibition", "setting": "[2]; oral, PG-PVA, 0.007 mmol/kg", "result": 23, "unit": "%"}, {"measurement": "% Inhibition", "setting": "[2]; oral, PG-PVA, 0.014 mmol/kg", "result": 43, "unit": "%"}, {"measurement": "% Inhibition", "setting": "[2]; oral, PG-PVA, 0.028 mmol/kg", "result": 70, "unit": "%"}]}, {"compound": "O=C(O)c1cccnc1Nc1cccc(C(F)(F)F)c1", "note": "[Niflumic acid, 2[3(trifluoro-methyl)phenyl] aminonicotinic acid, reference compound]", "values": [{"measurement": "ED50", "setting": "[1]; oral, 5% gum arabic in saline", "result": 0.15, "unit": "mmol/kg"}, {"measurement": "% Inhibition", "setting": "[1]; [4]", "result": 52, "unit": "%"}, {"measurement": "% Inhibition", "setting": "[1]; [5]", "result": 75, "unit": "%"}, {"measurement": "ED50", "setting": "[1]; oral, PG-PVA in saline", "result": 0.21, "unit": "mmol/kg"}, {"measurement": "% Inhibition", "setting": "[1]; oral, PG-PVA, 0.13 mmol/kg", "result": 38, "unit": "%"}, {"measurement": "% Inhibition", "setting": "[1]; oral, PG-PVA, 0.27 mmol/kg", "result": 51, "unit": "%"}, {"measurement": "% Inhibition", "setting": "[1]; oral, PG-PVA, 0.53 mmol/kg", "result": 80, "unit": "%"}, {"measurement": "ED50", "setting": "[1]; s.c., PG-PVA in saline", "result": 0.10, "unit": "mmol/kg"}, {"measurement": "% Inhibition", "setting": "[1]; s.c., PG-PVA, 0.04 mmol/kg", "result": 21, "unit": "%"}, {"measurement": "% Inhibition", "setting": "[1]; s.c., PG-PVA, 0.09 mmol/kg", "result": 54, "unit": "%"}, {"measurement": "% Inhibition", "setting": "[1]; s.c., PG-PVA, 0.18 mmol/kg", "result": 64, "unit": "%"}, {"measurement": "ED50", "setting": "[2]; oral, 5% gum arabic in saline", "result": 0.42, "unit": "mmol/kg"}, {"measurement": "% Inhibition", "setting": "[2]; [4]", "result": 13, "unit": "%"}, {"measurement": "% Inhibition", "setting": "[2]; [5]", "result": 87, "unit": "%"}, {"measurement": "ED50", "setting": "[2]; oral, PG-PVA in saline", "result": 0.48, "unit": "mmol/kg"}, {"measurement": "% Inhibition", "setting": "[2]; oral, PG-PVA, 0.18 mmol/kg", "result": 23, "unit": "%"}, {"measurement": "% Inhibition", "setting": "[2]; oral, PG-PVA, 0.71 mmol/kg", "result": 60, "unit": "%"}]}]}
